Experiments:
[1] = Effect of carbidopa on stability of levodopa formulations in vitro (Tables F, G, FIG. 1A); format: physicochemical
Protocol: (§1) 6% by weight levodopa and arginine solution with various concentrations (2, 1.5, 1, 0.5%) of carbidopa or no carbidopa were tested for physical stability in vitro. […] 1B. 7% by weight levodopa and arginine solution, with or without 2% carbidopa by weight, continuously administered in to the subcutaneous tissue of a 5×5 cm fresh, full-thickness pig skin.
The effect of carbidopa on levodopa formulations was investigated. Levodopa (LD) formulations were prepared with 0, 0.5, 1, 1.5 and 2% by weight carbidopa (CD) and a constant concentration of arginine.
In an additional experiment, LD formulations were prepared with 0, 0.5, 1 and 2% CD and respective concentrations of arginine.

[2] = Stability of carbidopa formulations with and without levodopa (Table H); format: physicochemical; settings: in the presence of LD
Description: The effect of levodopa on the stability of carbidopa was investigated. Table H indicates results.
It appears that LD may protect CD from degradation.

pig skin = assay: Continuous administration into full-thickness pig skin ex vivo (FIG. 1B); settings: 7% LD/arginine solution with 2% CD, 0.08 ml/h×18 h, 37° C.
Protocol: as §1, with “FIGS. 1A-1B show the effect of carbidopa on the stability of levodopa in vitro and ex vivo: 1A. 6%” for “6%”
A 7% LD/arginine solution, with or without 2% CD, was continuously administered at 0.08 ml/h×18 h, 37° C. into a 5×5 cm fresh, full-thickness pig skin.

pigs = settings: pig, in vivo, sc
Protocol: The effect of carbidopa on levodopa local toxicity was investigated in pigs: solutions containing 6% LD and 0, 0.5 or 1% CD with the respective amount of arginine (13.5, 14.2 or 14.8%, respectively) were continuously administered SC to pigs at 0.16 ml/h×24 h. Each formulation was administered to 2 pigs. Skin samples were collected 8±1 days thereafter.

[3] = Plasma LD, CD and 3-OMD during continuous SC LD/CD with oral entacapone in human volunteers (FIG. 6); format: in vivo, human
Protocol: A single center, double-blind, randomized, placebo-controlled, study was conducted with six healthy Caucasian males volunteers, aged 18-40 years old. LD (6%)/CD (1.5%) was administered at a rate of […], corresponding to 360 mg of LD and 90 mg of CD per 24 hours. […] Plasma LD, CD and 3-OMD concentrations were quantified at pre-determined time points.

[4] = cited from earlier work
[5] = cited from earlier work; remark: listed apart in the source
[6] = Titration with acetic or lactic acid: pH and physical stability (Table D); format: physicochemical
Description: Formulations containing 6/1.5% and 5.4/1.5% LD/CD and varying L-Arg concentrations were titrated with acetic acid (100%) or lactic acid (85%), to study the effect of pH and L-Arg concentration on the physical stability of the solutions (Table D).

C[C@@](Cc1ccc(O)c(O)c1)(NN)C(=O)O [CD, carbidopa]
Effect on the chemical stability of levodopa ([1]; Table F): does not have a significant effect
Dark yellow color formation ([1]; in the absence of air (N2 in the head space), 0.5% carbidopa): sufficient to inhibit this color formation
Dark yellow color formation ([1]; in the presence of air, 6% levodopa and arginine solution with 0.5-2% carbidopa): prevented dark yellow color formation
Sensitivity of CD to oxidation and degradation [2]: more stable in the presence of LD
Oxidation of LD ex vivo (black by-products) (pig skin): lack of black by-products formation
Oxidation of LD ex vivo (black by-products) (pig skin; listed as carbidopa): inhibition of oxidation
Local levodopa dependent subcutaneous toxicity (pigs): reduces the severity and extent

CCN(CC)C(=O)/C(C#N)=C/c1cc(O)c(O)c([N+](=O)[O-])c1 [E, entacapone]
Steady state of plasma concentrations of LD ([3]; 24 hours after LD/CD infusion initiation, 9 hours after entacapone dosing initiation): did not reach a steady state
Plasma concentrations of 3-OMD ([3]; human, in vivo): significantly reduced
Blood level of levodopa ([3]; male, human, in vivo): about 620 ng/ml
Increase of the blood level of levodopa ([3]; male, human, in vivo): more than 40%
Highest increase in the total amount of levodopa ([4]; after 400 mg dose of entacapone, oral levodopa and carbidopa): about 33%
Total amount of carbidopa in blood ([4]; high doses of entacapone (400 mg and 800 mg)): decrease the total amount of carbidopa in blood
Increase in the level of levodopa ([5]; according to Nyholm et al.): up to 33%
Reduction of the dose of levodopa and carbidopa maintaining the desired blood level of levodopa ([5]; oral 200 mg entacapone, intraintestinal infusion of levodopa and carbidopa): 20%

O=C1O[C@H]([C@@H](O)CO)C(O)=C1O [ascorbic acid]
Reduction of the pH as compared to Na-ascorbate [6]: 0.1-0.15 units
